Here are results for seven compounds from patent US8575135B2 (Gilead Sciences, Inc., priority 2011, dated 2013).

pEC50: −log10 of the molar value. Read-outs that look alike come from different tables or passages of the source.

Common to all, as to test: microbe, parasite or virus in culture
Assay [1] has as its system NS5A chimeric genotype 1b Con1 replicon with genotype 4a ED43 strain NS5A gene. The assay is classed as cell-based, HCV. As to conditions: Hepatitis C virus; for pEC50: read-out: 4a.
Assay [2] deals with 1a Pi-Rluc replicon with Q30R in genotype 1a NS5A. The assay is classed as cell-based, HCV. Conditions: Hepatitis C virus; for pEC50: read-out: 1a Q30R; for EC50: read-out: 1a Q30R (nM). The protocol: Antiviral potency (EC50) was determined using a Renilla luciferase (RLuc)-based HCV replicon reporter assay. […] To perform the assay for genotype 2a (with M31 present in NS5A) or 2b, NS5A chimeric genotype 2a JFH-1 replicons that encodes a RLuc-Neo reporter and either genotype 2a J6 strain NS5A gene or genotype 2b MD2b-1 strain NS5A gene (both with M31 present) respectively, were either transiently transfected (t) into Huh-Lunet cells or were established as stably replicating replicon cells (s) is provided. Either cells were dispensed into 384-well plates for EC50 assays. To perform the assay for genotype 3 and 4, NS5A chimeric genotype 1b Con1 replicons that encodes a Pi-RLuc reporter and either genotype 3a S52 strain NS5A gene or genotype 4a ED43 strain NS5A gene respectively, were transiently transfected (t) into Huh-Lunet cells, which were subsequently dispensed into 384-well plates. Compounds were dissolved in DMSO at a concentration of 10 mM and diluted in DMSO either manually or using an automated pipeting instrument. Serially 3-fold diluted compounds were either manually mixed with cell culture media and added to the seeded cells or directly added to the cells using an automated instrument. […] 72 hours later, cells were lysed and Renilla luciferase activity quantified as recommended by the manufacturer (Promega-Madison, Wis.). Non-linear regression was performed to calculate EC50 values.
To determine the antiviral potency (EC50) against resistance mutants, resistance mutations, including M28T, Q30R, Q30H, L31M, and Y93C in genotype 1a NS5A and Y93H in genotype 1b NS5A, were introduced individually into either 1a Pi-Rluc or 1b Pi-Rluc replicons by site directed mutagenesis. Replicon RNA of each resistant mutant was transiently transfected into Huh-7-derived cured-51 cells and antiviral potency was determined on these transfected cells as described above.

In assay [3] the test system is NS5A chimeric genotype 2a JFH-1 replicon with genotype 2b MD2b-1 strain NS5A gene (M31 present). The format is cell-based, HCV. As to conditions: Hepatitis C virus; for pEC50: read-out: 2b. A digest of the protocol:
(§1)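 Con1-based 3a and 4a chimeras carried a Pi-RLuc reporter and were transiently transfected into Huh-Lunet cells; the JFH-1-based 2b chimera (RLuc-Neo) was used transiently or as stable replicon cells.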

Assay [4] has as its system NS5A chimeric genotype 2a JFH-1 replicon with genotype 2a J6 strain NS5A gene (M31 present). The format is cell-based, HCV. Conditions: Hepatitis C virus; for pEC50: read-out: 2a J6.
For assay [5], the system named is NS5A chimeric genotype 1b Con1 replicon with genotype 3a S52 strain NS5A gene. The assay is classed as cell-based, HCV. Conditions: Hepatitis C virus; for pEC50: read-out: 3a; for EC50: read-out: 3a (nM). In short, it runs like this:
as §1

The test system of assay [6] is stable HCV 1a RLuc replicon cells (genotype 1a H77 replicon). The assay is classed as cell-based. Conditions: Hepatitis C virus; for pEC50: read-out: 1a; for EC50: read-out: 1a (nM).
The test system of assay [7] is stable HCV 2a JFH-1 Rluc replicon cells (L31 present in NS5A). The assay is classed as cell-based. Conditions: Hepatitis C virus; for pEC50: read-out: 2a JFH; for EC50: read-out: 2a JFH (nM).

Take `COC[C@H]1C[C@@H](c2ncc(-c3ccc4c(c3)COc3cc5c(ccc6nc([C@@H]7C[C@H](COC)CN7C(=O)[C@@H](NC(=O)OC)C(C)C)[nH]c65)cc3-4)[nH]2)N(C(=O)[C@@H](NC(=O)OC)C(C)C)C1` [Example OI, Methyl {(2S)-1-[(2S,4S)-2-(5-{2-[(2S,4S)-1-{(2S)-2-[(methoxycarbonyl)amino]-3-methylbutanoyl}-4-(methoxymethyl)pyrrolidin-2-yl]-1,11-dihydroisochromeno[4′,3′:6,7]naphtho[1,2-d]imidazol-9-yl}-1H-imidazol-2-yl)-4-(methoxymethyl)pyrrolidin-1-yl]-3-methyl-1-oxobutan-2-yl}carbamate]: the pEC50 in assay [1], in assay [2], in assay [3], in assay [4], in assay [5] and in assay [6] was over 9.00 throughout. In assay [7], the pEC50 was over 9.00. In addition, the EC50 in assay [1] (read-out: 4a (s) (nM)) is 0.007 nM; in assay [1] (read-out: 4a (t) (nM)) it was 0.036 nM; in assay [2], 0.086 nM; in assay [3] (read-out: 2b (s) (nM)) it was 0.629 nM; in assay [3] (read-out: 2b (t) (nM)), 0.178 nM; in assay [4] (read-out: 2a J6 (s) (nM)) it was 0.326 nM. The EC50 in assay [4] (read-out: 2a Jb (t) (nM)) is 0.061 nM; in assay [5], 0.206 nM; in assay [6], 0.024 nM; in assay [7], 0.01 nM.

`COC(=O)N[C@H](C(=O)N1CCC[C@H]1c1ncc(-c2ccc3c(c2)COc2cc4c(ccc5nc([C@@H]6CCCN6C(=O)[C@H](NC(=O)OC)c6ccccc6)[nH]c54)cc2-3)[nH]1)[C@@H](C)OC` [Compound 588]: the pEC50 in assay [1], in assay [2], in assay [3], in assay [4], in assay [5] and in assay [6] was over 9.00 each time. The pEC50 in assay [7] was over 9.00. Further, the EC50 in assay [1] (read-out: 4a (t) (nM)) was determined as 0.019 nM; in assay [2] it was 0.087 nM; in assay [3] (read-out: 2b (s) (nM)) it was 0.017 nM; in assay [3] (read-out: 2b (t) (nM)), 0.012 nM; in assay [4] (read-out: 2a J6 (s) (nM)), 0.14 nM; in assay [4] (read-out: 2a Jb (t) (nM)) it was 0.038 nM. In addition, the results for the EC50 in assay [5], in assay [6] and in assay [7] were 0.027 nM, 0.012 nM and 0.004 nM, respectively.

Regarding `COC(=O)N[C@H](C(=O)N1[C@H](c2nc3ccc4cc5c(cc4c3[nH]2)OCc2cc(-c3cnc(C4CCCN4C(=O)[C@@H](NC(=O)OC)C4CCOCC4)[nH]3)ccc2-5)C[C@@H]2CCC[C@@H]21)C(C)C` (stereo partly drawn) [Example PP, methyl [(1S)-2-[2-(5-{2-[(2S,3aS,6aS)-1-{(2S)-2-[(methoxycarbonyl)amino]-3-methylbutanoyl}octahydrocyclopenta[b]pyrrol-2-yl]-1,11-dihydroisochromeno[4′,3′:6,7]naphtho[1,2-d]imidazol-9-yl}-1H-imidazol-2-yl)pyrrolidin-1-yl]-2-oxo-1-(tetrahydro-2H-pyran-4-yl)ethyl]carbamate], the pEC50 in assay [1], in assay [2], in assay [3], in assay [4], in assay [5] and in assay [6] was over 9.00 each time. The pEC50 in assay [7] was over 9.00. Moreover, the EC50 was found to be 0.011 nM in assay [1] (read-out: 4a (s) (nM)); 0.027 nM in assay [1] (read-out: 4a (t) (nM)); 0.043 nM in assay [2]; 0.11 nM in assay [3] (read-out: 2b (s) (nM)); 0.038 nM in assay [3] (read-out: 2b (t) (nM)); 0.403 nM in assay [4] (read-out: 2a J6 (s) (nM)). The EC50 is 0.061 nM in assay [4] (read-out: 2a Jb (t) (nM)), 0.019 nM in assay [5], 0.014 nM in assay [6] and 0.011 nM in assay [7].

For `COC(=O)N[C@H](C(=O)N1CCC[C@H]1c1nc2ccc3cc4c(cc3c2[nH]1)OCc1cc(-c2cnc([C@@H]3CCCN3C(=O)[C@H](NC(=O)C3CC3)c3ccccc3)[nH]2)ccc1-4)C(C)C` [Compound 498], the pEC50 in assay [1], in assay [2], in assay [3], in assay [4], in assay [5] and in assay [6] was over 9.00 throughout. Besides, the pEC50 in assay [7] is over 9.00. Further, the EC50 turned out to be 0.004 nM in assay [1] (read-out: 4a (s) (nM)); 0.011 nM in assay [1] (read-out: 4a (t) (nM)); 0.04 nM in assay [2]; 0.013 nM in assay [3] (read-out: 2b (s) (nM)); 0.01 nM in assay [3] (read-out: 2b (t) (nM)); 0.039 nM in assay [4] (read-out: 2a J6 (s) (nM)). Moreover, the EC50 in assay [4] (read-out: 2a Jb (t) (nM)) turned out to be 0.012 nM; in assay [5], 0.005 nM; in assay [6] it was 0.03 nM; in assay [7] it was 0.004 nM.

For the compound `COC(=O)N[C@H](C(=O)N1C[C@@H](C)C[C@H]1c1nc2ccc3cc4c(cc3c2[nH]1)OCc1cc(-c2cnc([C@@H]3CCCN3C(=O)[C@H](NC(=O)OC)c3ccccc3)[nH]2)ccc1-4)C(C)C` [Example NB, Methyl {(1R)-2-[(2S)-2-(5-{2-[(2S,4S)-1-{(2S)-2-[(methoxycarbonyl)amino]-3-methylbutanoyl}-4-methylpyrrolidin-2-yl]-1,11-dihydroisochromeno[4′,3′:6,7]naphtho[1,2-d]imidazol-9-yl}-1H-imidazol-2-yl)pyrrolidin-1-yl]-2-oxo-1-phenylethyl}carbamate], the pEC50 in assay [1], in assay [2], in assay [3], in assay [4], in assay [5] and in assay [6] was over 9.00 each time. Moreover, the pEC50 in assay [7] is over 9.00. Moreover, the EC50 was found to be 0.025 nM in assay [1] (read-out: 4a (s) (nM)); 0.023 nM in assay [1] (read-out: 4a (t) (nM)); 0.034 nM in assay [2]; 0.039 nM in assay [3] (read-out: 2b (s) (nM)); 0.007 nM in assay [3] (read-out: 2b (t) (nM)); 0.138 nM in assay [4] (read-out: 2a J6 (s) (nM)). In addition, the EC50 in assay [4] (read-out: 2a Jb (t) (nM)) amounted to 0.02 nM; in assay [5] it was 0.011 nM; in assay [6], 0.01 nM; in assay [7], 0.004 nM.

With `COC[C@H]1C[C@@H](c2ncc(-c3ccc4c(c3)COc3cc5c(ccc6nc([C@@H]7C[C@@H]8C[C@@H]8N7C(=O)[C@@H](NC(=O)OC)C(C)C)[nH]c65)cc3-4)[nH]2)N(C(=O)[C@H](NC(=O)OC)c2ccccc2)C1` [Example OV, Methyl {(1R)-2-[(2S,4S)-2-(5-{2-[(1S,3S,5S)-2-{(2S)-2-[(methoxycarbonyl)amino]-3-methylbutanoyl}-2-azabicyclo[3.1.0]hex-3-yl]-1,11-dihydroisochromeno[4′,3′:6,7]naphtho[1,2-d]imidazol-9-yl}-1H-imidazol-2-yl)-4-(methoxymethyl)pyrrolidin-1-yl]-2-oxo-1-phenylethyl}carbamate], the pEC50 in assay [2], in assay [3], in assay [4], in assay [5], in assay [6] and in assay [7] was over 9.00 each time. The EC50 in assay [2] came to 0.031 nM; in assay [3] (read-out: 2b (t) (nM)) it was 0.046 nM; in assay [4] (read-out: 2a Jb (t) (nM)), 0.113 nM; in assay [5], 0.013 nM; in assay [6], 0.01 nM; in assay [7], 0.007 nM.

Regarding `COC[C@H]1C[C@@H](c2ncc(-c3ccc4c(c3)COc3cc5c(ccc6nc([C@@H]7CCCN7C(=O)[C@H](NC(=O)OC)c7ccccc7)[nH]c65)cc3-4)[nH]2)N(C(=O)[C@@H](NC(=O)OC)[C@@H](C)OC)C1` [Compound 626], the pEC50 in assay [2], in assay [3], in assay [4], in assay [5], in assay [6] and in assay [7] was over 9.00 each time. Further, the EC50 in assay [2] was determined as 0.041 nM; in assay [3] (read-out: 2b (t) (nM)) it was 0.021 nM; in assay [4] (read-out: 2a Jb (t) (nM)), 0.021 nM; in assay [5] it was 0.027 nM; in assay [6] it was 0.021 nM; in assay [7], 0.009 nM.
